From ChEMBL document CHEMBL3769302, “2-Oxo-1,2-dihydropyridinyl-3-yl amide-based GPa inhibitors: Design, synthesis and structure-activity relationship study” (Eur J Med Chem, 2016)
pIC50: −log10 of the molar value.

Tests used:
[1] = target: T1, Glycogen phosphorylase, muscle form (Oryctolagus cuniculus, UniProt P00489); experiment: Inhibition of rabbit muscle glycogen phosphorylase-a assessed as formation of inorganic phosphate from glucose-1-phosphate by colorimetry
T1 sequence (P00489 whole entry): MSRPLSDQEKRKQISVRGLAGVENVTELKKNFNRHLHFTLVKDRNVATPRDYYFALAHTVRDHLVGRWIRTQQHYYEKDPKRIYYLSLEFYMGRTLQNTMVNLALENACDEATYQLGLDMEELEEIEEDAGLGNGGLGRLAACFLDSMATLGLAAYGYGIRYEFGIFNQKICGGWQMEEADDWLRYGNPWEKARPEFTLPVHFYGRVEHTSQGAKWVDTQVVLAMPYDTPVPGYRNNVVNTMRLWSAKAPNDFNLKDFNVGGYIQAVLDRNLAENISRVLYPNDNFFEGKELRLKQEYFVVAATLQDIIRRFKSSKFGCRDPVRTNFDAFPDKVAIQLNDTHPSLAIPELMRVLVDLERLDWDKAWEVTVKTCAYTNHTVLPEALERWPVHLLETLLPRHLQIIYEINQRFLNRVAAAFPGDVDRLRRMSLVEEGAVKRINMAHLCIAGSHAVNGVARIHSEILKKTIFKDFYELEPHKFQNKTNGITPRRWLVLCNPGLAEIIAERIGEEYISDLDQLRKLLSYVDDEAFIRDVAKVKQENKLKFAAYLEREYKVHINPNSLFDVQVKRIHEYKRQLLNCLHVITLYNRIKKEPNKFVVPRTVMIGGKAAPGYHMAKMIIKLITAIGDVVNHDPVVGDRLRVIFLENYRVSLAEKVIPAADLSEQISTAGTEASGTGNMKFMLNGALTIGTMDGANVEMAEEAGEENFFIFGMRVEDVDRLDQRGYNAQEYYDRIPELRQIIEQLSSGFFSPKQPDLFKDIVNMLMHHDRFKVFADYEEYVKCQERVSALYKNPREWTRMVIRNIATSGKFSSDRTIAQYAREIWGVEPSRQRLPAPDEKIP

[2] = target: T2, Glycogen phosphorylase, muscle form (Oryctolagus cuniculus) (UniProt P00489); experiment: Inhibition of rabbit muscle glycogen phosphorylase-a assessed as formation of inorganic phosphate from glucose-1-phosphate at 11.1 uM by colorimetry
T2 sequence (whole entry): T1 sequence (P00489 whole entry)

[3] = target: T2, Glycogen phosphorylase, muscle form (Oryctolagus cuniculus); experiment: Inhibition of rabbit muscle glycogen phosphorylase-a assessed as formation of inorganic phosphate from glucose-1-phosphate at 222 uM by colorimetry
[4] = target: T2, Glycogen phosphorylase, muscle form (Oryctolagus cuniculus); experiment: Inhibition of rabbit muscle glycogen phosphorylase-a assessed as formation of inorganic phosphate from glucose-1-phosphate at 4.4 mM by colorimetry
[5] = target: T2, Glycogen phosphorylase, muscle form (Oryctolagus cuniculus); experiment: Inhibition of rabbit muscle glycogen phosphorylase-a assessed as formation of inorganic phosphate from glucose-1-phosphate at 444 uM by colorimetry
[6] = target: T2, Glycogen phosphorylase, muscle form (Oryctolagus cuniculus); experiment: Inhibition of rabbit muscle glycogen phosphorylase-a assessed as formation of inorganic phosphate from glucose-1-phosphate at 90 uM by colorimetry
[7] = target: T2, Glycogen phosphorylase, muscle form (Oryctolagus cuniculus); experiment: Inhibition of rabbit muscle glycogen phosphorylase-a assessed as formation of inorganic phosphate from glucose-1-phosphate at 44 uM by colorimetry
[8] = target: T2, Glycogen phosphorylase, muscle form (Oryctolagus cuniculus); experiment: Inhibition of rabbit muscle glycogen phosphorylase-a assessed as formation of inorganic phosphate from glucose-1-phosphate at 20 uM by colorimetry
[9] = target: T2, Glycogen phosphorylase, muscle form (Oryctolagus cuniculus); experiment: Inhibition of rabbit muscle glycogen phosphorylase-a assessed as formation of inorganic phosphate from glucose-1-phosphate at 440 uM by colorimetry

pIC50 ([1]; read-out: IC50) | inhibition [3] [%] | Structure (SMILES) | also measured
– | 73 | O=C(Cn1cccc(NCc2cccs2)c1=O)NCc1ccc(Cl)c(Cl)c1 | pIC50 ([1]; read-out: IC50(app)): 4.71
5.25 | – | O=C(Cn1cccc(NCc2cccc(Cl)c2)c1=O)NCc1ccc(Cl)c(Cl)c1 | –
5.72 | – | O=C(Cn1cccc(NCc2ccc(Cl)c(Cl)c2)c1=O)NCc1ccc(Cl)c(Cl)c1 | –
4.99 | – | O=C(Cn1cccc(NCc2ccc(Cl)c(Cl)c2)c1=O)NCc1ccccc1 | –
5.68 | – | O=C(Cn1cccc(NCc2ccc(Cl)cc2)c1=O)NCc1ccc(Cl)c(Cl)c1 | –
4.73 | 77 | O=C(Cn1cccc(NCc2ccccc2Cl)c1=O)NCc1ccc(Cl)c(Cl)c1 | –

More lines, now with the values behind:

Structure (SMILES) | pIC50 ([1]; read-out: IC50) | inhibition [3] [%] | also measured
O=C(Cn1cccc(NCc2ccc(Cl)c(Cl)c2)c1=O)NCCc1ccc(Cl)c(Cl)c1 | – | – | pIC50 ([1]; read-out: IC50(app)): 4.65; inhibition [2]: 98%
Cc1ccc(S(=O)(=O)n2cccc2CNc2cccn(CC(=O)NCc3ccc(Cl)c(Cl)c3)c2=O)cc1 | 5.47 | – | –
O=C(Cn1cccc(NCc2ccc(Cl)c(Cl)c2)c1=O)Nc1ccc(Cl)c(Cl)c1 | – | 98 | pIC50 ([1]; read-out: IC50(app)): 4.73
O=C(Cn1cccc(NCCCc2ccccc2)c1=O)NCc1ccc(Cl)c(Cl)c1 | – | – | inhibition [4]: 33%
CCOC(=O)Cn1cccc(NCc2ccc(Cl)c(Cl)c2)c1=O | – | 43 | –
O=C(Cn1cccc(NCc2ccc([N+](=O)[O-])cc2)c1=O)NCc1ccc(Cl)c(Cl)c1 | – | – | pIC50 ([1]; read-out: IC50(app)): 5.60; inhibition [2]: 100%
O=C(Cn1cccc(NCc2ccccc2)c1=O)NCCc1ccc(Cl)c(Cl)c1 | – | – | inhibition [5]: 80%
O=C(Cn1cccc(NCc2ccccc2)c1=O)Nc1ccc(Cl)c(Cl)c1 | – | – | inhibition [6]: 41%
O=C(Cn1cccc(NCc2ccc(Cl)c(Cl)c2)c1=O)NCCc1ccc(Cl)cc1Cl | – | – | inhibition [7]: 22%
O=C(Cn1cccc(NC(=O)c2ccccc2)c1=O)Nc1ccc(Cl)c(Cl)c1 | – | 100 | pIC50 ([1]; read-out: IC50(app)): 4.89
O=C(Cn1cccc(NCc2cccc(Cl)c2)c1=O)Nc1ccc(Cl)c(Cl)c1 | – | – | inhibition [8]: 33%
O=C(Cn1cccc(NCc2ccc(Cl)cc2)c1=O)Nc1ccc(Cl)c(Cl)c1 | – | – | IC50 [1]: Not Active
O=C(Cn1cccc(NCc2ccc(Cl)c(Cl)c2)c1=O)NCCc1ccccc1 | 4.50 | – | –
O=C(Cn1cccc(NCc2ccccn2)c1=O)NCc1ccc(Cl)c(Cl)c1 | – | – | IC50 [1]: Not Active
O=C(Cn1cccc(NCc2ccccc2)c1=O)Nc1ccccc1 | – | – | IC50 [1]: Not Active
CCOC(=O)Cn1cccc(NCc2ccc(Cl)cc2)c1=O | – | 75 | –
O=C(Cn1cccc(NCc2ccccc2)c1=O)NCCc1ccc(Cl)cc1Cl | – | – | inhibition [7]: 93%
O=C(Cn1cccc(NCc2ccc(Cl)c(Cl)c2)c1=O)Nc1ccccc1 | – | – | inhibition [9]: 19%
Cc1ccc(S(=O)(=O)Nc2cccn(CC(=O)NCc3ccc(Cl)c(Cl)c3)c2=O)cc1 | – | 37 | –
CCCNC(=O)Cn1cccc(NCc2ccc(Cl)c(Cl)c2)c1=O | – | 67 | –
O=C(Cn1cccc(NCc2ccccc2Cl)c1=O)Nc1ccc(Cl)c(Cl)c1 | 4.24 | – | –
O=C(Cn1cccc(NCCCc2ccccc2)c1=O)NCCc1ccc(Cl)c(Cl)c1 | 4.17 | – | –
CCOC(=O)Cn1cccc(NCc2cccn2S(=O)(=O)c2ccc(C)cc2)c1=O | – | 75 | –
